Patent US6518243B1, “Desleucyl glycopeptide antibiotics and methods of making same” (Trustees of Princeton University, priority 1999, dated 2003)

Experiments:
[1] = tested on: E. faecalis ATCC 29212; experiment: MIC determination in BHI media, OD600; format: cell-based; details: BHI + 0.1% casamino acids, 18 hours at 37° C., ≧90% OD600 inhibition
Method: (§1) Logarithmically growing cells were diluted to approximately 5×10^5 CFU/ml and subjected to test compounds solubilized and serially diluted in DMSO. […] After 18 hours at 37° C., the OD600 was determined by reading the ninety-six well microtiter plates on a microplate reader. For a given concentration, an MIC determination was made if: […]

[2] = tested on: E. faecium ATCC 49624; experiment: MIC determination in BHI media, OD600; format: cell-based; details: BHI + 0.1% casamino acids, 18 hours at 37° C., ≧90% OD600 inhibition
Method: as §1

[3] = tested on: S aureus ATCC 29213; experiment: MIC determination in BHI media, OD600; format: cell-based; details: BHI + 0.1% casamino acids, 18 hours at 37° C., ≧90% OD600 inhibition
Method: as §1

[4] = tested on: S. Aureus ATCC 33591; experiment: MIC determination in BHI media, OD600; format: cell-based; details: BHI + 0.1% casamino acids, 18 hours at 37° C., ≧90% OD600 inhibition
Method: as §1

[5] = tested on: E. faceium (ATCC 49624); experiment: Zone of inhibition screen, 96 well agar array format;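 note: score 3 means fourfold and score 4 sixteenfold the reference zone size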; format: cell-based, E. faecium; details: zone of inhibition relative to 1 mg/ml stock solution of p-chlorobiphenylvancomycin
Method: The antibacterial activity of each of the compounds against the bacterial strains E. faceium (ATCC 49624), S. epidermidis (ATCC 12228), S. aureus (ATCC 29213), E. faecalis (CL 4877) and E. faecalis (ATCC 292121) was tested. Each of the compounds was screened in a 96 will agar array format.

[6] = tested on: S. epidermidis (ATCC 12228); experiment: as above; format: cell-based; set-up: scale not given here
Procedure, shortened: (§2)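 Agar-array screen, 96-well; single compounds vs. strain panel (panel also incl. E. faecium ATCC 49624); antibacterial activity scored.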

[7] = tested on: E. faecium CL 4931; experiment: MIC determination in BHI media, OD600; format: cell-based; details: BHI + 0.1% casamino acids, 18 hours at 37° C., ≧90% OD600 inhibition
Method: as §1

[8] = tested on: E. faecalis (CL 4877); experiment: Zone of inhibition screen, 96 well agar array format; format: cell-based; set-up: scale not given here
Procedure, shortened: as §2

[9] = tested on: S. aureus (ATCC 29213); experiment: as above; format: cell-based; set-up: scale not given here
Procedure, shortened: as §2

[10] = zone of inhibition relative to 1 mg/ml stock solution of p-chlorobiphenylvancomycin
[11] = zone of inhibition relative to 1 mg/ml p-chlorobiphenylvancomycin

SMILES | MIC E. faecalis ATCC 29212 [1] [µg/mL] | MIC E. faecium ATCC 49624 [2] [µg/mL] | MIC S. aureus ATCC 29213 [3] [µg/mL] | MIC S. aureus ATCC 33591 [4] [µg/mL] | zone score, E. faecium ATCC 49624 [5] | zone score, S. epidermidis ATCC 12228 [6, 10] | MIC E. faecium CL 4931 [7] [µg/mL] | zone score, E. faecalis CL 4877 [8, 10] | zone score, S. aureus ATCC 29213 [9, 10] | zone score, E. faecalis CL 4877 [8, 11] | zone score, S. aureus ATCC 29213 [9, 11] | zone score, S. epidermidis ATCC 12228 [6, 11]
C[C@H]1O[C@H](O[C@H]2[C@H](Oc3c4cc5cc3Oc3ccc(cc3Cl)[C@@H](O)[C@@H](NC(=O)[C@H](N)Cc3ccccc3)C(=O)N[C@@H](CC(N)=O)C(=O)N[C@H]5C(=O)N[C@H]3C(=O)N[C@H](C(=O)N[C@@H](C(=O)O)c5cc(O)cc(O)c5-c5cc3ccc5O)[C@H](O)c3ccc(c(Cl)c3)O4)O[C@H](CO)[C@@H](O)[C@@H]2O)C[C@@](C)(NCc2ccc(-c3ccc(Cl)cc3)cc2)[C@H]1O [Compound 16] | 0.25 | 0.12 | 0.25 | 0.25 | – | – | – | – | – | – | – | –
C[C@H]1O[C@H](O[C@H]2[C@H](Oc3c4cc5cc3Oc3ccc(cc3Cl)[C@@H](O)[C@@H](NC(=O)CN3CCNCC3)C(=O)N[C@@H](CC(N)=O)C(=O)N[C@H]5C(=O)N[C@H]3C(=O)N[C@H](C(=O)N[C@@H](C(=O)O)c5cc(O)cc(O)c5-c5cc3ccc5O)[C@H](O)c3ccc(c(Cl)c3)O4)O[C@H](CO)[C@@H](O)[C@@H]2O)C[C@@](C)(NCc2ccc(-c3ccc(Cl)cc3)cc2)[C@H]1O [Compound 24] | – | – | 0.78 | 0.78 | 2 | 2 | 25 | – | – | – | – | –
C[C@H]1O[C@H](O[C@H]2[C@H](Oc3c4cc5cc3Oc3ccc(cc3Cl)[C@@H](O)[C@@H](NC(=O)[C@@H](N)CCC(=O)OCc3ccccc3)C(=O)N[C@@H](CC(N)=O)C(=O)N[C@H]5C(=O)N[C@H]3C(=O)N[C@H](C(=O)N[C@@H](C(=O)O)c5cc(O)cc(O)c5-c5cc3ccc5O)[C@H](O)c3ccc(c(Cl)c3)O4)O[C@H](CO)[C@@H](O)[C@@H]2O)C[C@@](C)(NCc2ccc(-c3ccc(Cl)cc3)cc2)[C@H]1O [Compound 26] | – | – | 0.78 | 0.78 | – | – | > 25 | 2 | 2 | – | – | –
CC1OC(OC2C(Oc3c4cc5cc3Oc3ccc(cc3Cl)C(O)C3NC(=O)C(NC(=O)C5NC(=O)C(CC(N)=O)NC(=O)C(NC(=O)CN5CCNCC5)C(O)c5ccc(c(Cl)c5)O4)c4ccc(O)c(c4)-c4c(O)cc(O)cc4C(C(=O)O)NC3=O)OC(CO)C(O)C2O)CC(C)(NCc2ccc(-c3ccc(Cl)cc3)cc2)C1O (stereo not shown) [Compound 34] | – | 0.78 | 0.78 | – | 2 | – | 25 | – | – | – | – | –
CCC(C)C(N)C(=O)NC1C(=O)NC(CC(N)=O)C(=O)NC2C(=O)NC3C(=O)NC(C(=O)NC(C(=O)O)c4cc(O)cc(O)c4-c4cc3ccc4O)C(O)c3ccc(c(Cl)c3)Oc3cc2cc(c3OC2OC(CO)C(O)C(O)C2OC2CC(C)(NCc3ccc(-c4ccc(Cl)cc4)cc3)C(O)C(C)O2)Oc2ccc(cc2Cl)C1O (stereo not shown) [Compound 37] | 0.78 | 0.25 | 0.39 | 0.39 | – | – | – | – | – | – | – | –
CC1OC(OC2C(Oc3c4cc5cc3Oc3ccc(cc3Cl)C(O)C3NC(=O)C(NC(=O)C5NC(=O)C(CC(N)=O)NC(=O)C(NC(=O)C5CNC(=O)N5)C(O)c5ccc(c(Cl)c5)O4)c4ccc(O)c(c4)-c4c(O)cc(O)cc4C(C(=O)O)NC3=O)OC(CO)C(O)C2O)CC(C)(NCc2ccc(-c3ccc(Cl)cc3)cc2)C1O (stereo not shown) [Compound 56-3] | 0.25 | 0.12 | 0.25 | 0.25 | – | – | – | – | – | – | – | –
CC1OC(OC2C(Oc3c4cc5cc3Oc3ccc(cc3Cl)C(O)C3NC(=O)C(NC(=O)C5NC(=O)C(CC(N)=O)NC(=O)C(NC(=O)C(N)CCCCNC(N)=O)C(O)c5ccc(c(Cl)c5)O4)c4ccc(O)c(c4)-c4c(O)cc(O)cc4C(C(=O)O)NC3=O)OC(CO)C(O)C2O)CC(C)(NCc2ccc(-c3ccc(Cl)cc3)cc2)C1O (stereo not shown) [Compound 61] | 0.25 | 0.12 | 0.12 | 0.12 | – | – | – | – | – | – | – | –
CC1OC(OC2C(Oc3c4cc5cc3Oc3ccc(cc3Cl)C(O)C3NC(=O)C(NC(=O)C5NC(=O)C(CC(N)=O)NC(=O)C(NC(=O)C(N)CO)C(O)c5ccc(c(Cl)c5)O4)c4ccc(O)c(c4)-c4c(O)cc(O)cc4C(C(=O)O)NC3=O)OC(CO)C(O)C2O)CC(C)(NCc2ccc(-c3ccc(Cl)cc3)cc2)C1O (stereo not shown) [Compound 63] | – | 0.78 | 0.78 | 0.78 | – | – | 25 | 2 | 2 | – | – | –
CC1OC(OC2C(Oc3c4cc5cc3Oc3ccc(cc3Cl)C(O)C3NC(=O)C(NC(=O)C5NC(=O)C(CC(N)=O)NC(=O)C(NC(=O)C(N)CCS(C)(=O)=O)C(O)c5ccc(c(Cl)c5)O4)c4ccc(O)c(c4)-c4c(O)cc(O)cc4C(C(=O)O)NC3=O)OC(CO)C(O)C2O)CC(C)(NCc2ccc(-c3ccc(Cl)cc3)cc2)C1O (stereo not shown) [Compound 82] | – | 0.39 | 0.78 | 0.78 | 2 | – | 25 | – | – | – | – | –
CC(O)C(N)C(=O)NC1C(=O)NC(CC(N)=O)C(=O)NC2C(=O)NC3C(=O)NC(C(=O)NC(C(=O)O)c4cc(O)cc(O)c4-c4cc3ccc4O)C(O)c3ccc(c(Cl)c3)Oc3cc2cc(c3OC2OC(CO)C(O)C(O)C2OC2CC(C)(NCc3ccc(-c4ccc(Cl)cc4)cc3)C(O)C(C)O2)Oc2ccc(cc2Cl)C1O (stereo not shown) [Compound 89] | – | 0.78 | – | – | 2 | 2 | > 25 | 2 | – | – | – | –
CC1OC(OC2C(Oc3c4cc5cc3Oc3ccc(cc3Cl)C(O)C3NC(=O)C(NC(=O)C5NC(=O)C(CC(N)=O)NC(=O)C(NC(=O)C(N)CCC(N)=O)C(O)c5ccc(c(Cl)c5)O4)c4ccc(O)c(c4)-c4c(O)cc(O)cc4C(C(=O)O)NC3=O)OC(CO)C(O)C2O)CC(C)(NCc2ccc(-c3ccc(Cl)cc3)cc2)C1O (stereo not shown) [Compound 91] | – | 0.78 | 0.78 | 0.78 | – | 2 | 25 | – | – | – | – | –
CC1OC(OC2C(Oc3c4cc5cc3Oc3ccc(cc3Cl)C(O)C3NC(=O)C(NC(=O)C5NC(=O)C(CC(N)=O)NC(=O)C(NC(=O)C(CCC(N)=O)NC(=O)OC(C)(C)C)C(O)c5ccc(c(Cl)c5)O4)c4ccc(O)c(c4)-c4c(O)cc(O)cc4C(C(=O)O)NC3=O)OC(CO)C(O)C2O)CC(C)(NCc2ccc(-c3ccc(Cl)cc3)cc2)C1O (stereo not shown) [Compound 136] | – | 0.78 | 0.78 | 0.78 | – | 2 | > 25 | – | – | – | – | –
C[C@H]1O[C@H](O[C@H]2[C@H](Oc3c4cc5cc3Oc3ccc(cc3Cl)[C@@H](O)[C@@H](NC(=O)c3cccc(N)c3)C(=O)N[C@@H](CC(N)=O)C(=O)N[C@H]5C(=O)N[C@H]3C(=O)N[C@H](C(=O)N[C@@H](C(=O)O)c5cc(O)cc(O)c5-c5cc3ccc5O)[C@H](O)c3ccc(c(Cl)c3)O4)O[C@H](CO)[C@@H](O)[C@@H]2O)C[C@@](C)(NCc2ccc(-c3ccc(Cl)cc3)cc2)[C@H]1O [Compound 257] | – | 0.39 | 0.78 | 0.78 | – | – | 25 | – | – | 2 | 2 | 2
CC1OC(OC2C(Oc3c4cc5cc3Oc3ccc(cc3Cl)C(O)C3NC(=O)C(NC(=O)C5NC(=O)C(CC(N)=O)NC(=O)C(NC(=O)C(N)COCc5ccccc5)C(O)c5ccc(c(Cl)c5)O4)c4ccc(O)c(c4)-c4c(O)cc(O)cc4C(C(=O)O)NC3=O)OC(CO)C(O)C2O)CC(C)(NCc2ccc(-c3ccc(Cl)cc3)cc2)C1O (stereo not shown) [Compound 342] | – | 0.39 | 0.78 | 0.78 | – | – | 25 | – | – | – | – | –
CC1OC(OC2C(Oc3c4cc5cc3Oc3ccc(cc3Cl)C(O)C3NC(=O)C(NC(=O)C5NC(=O)C(CC(N)=O)NC(=O)C(NC(=O)C(N)CSSC(C)(C)C)C(O)c5ccc(c(Cl)c5)O4)c4ccc(O)c(c4)-c4c(O)cc(O)cc4C(C(=O)O)NC3=O)OC(CO)C(O)C2O)CC(C)(NCc2ccc(-c3ccc(Cl)cc3)cc2)C1O (stereo not shown) [Compound 345] | – | 0.39 | 0.78 | 0.78 | – | – | 25 | – | – | – | – | –
CCOCC(N)C(=O)NC1C(=O)NC(CC(N)=O)C(=O)NC2C(=O)NC3C(=O)NC(C(=O)NC(C(=O)O)c4cc(O)cc(O)c4-c4cc3ccc4O)C(O)c3ccc(c(Cl)c3)Oc3cc2cc(c3OC2OC(CO)C(O)C(O)C2OC2CC(C)(NCc3ccc(-c4ccc(Cl)cc4)cc3)C(O)C(C)O2)Oc2ccc(cc2Cl)C1O (stereo not shown) [Compound 524] | – | 0.25 | 0.39 | 0.39 | – | – | 25 | – | – | – | – | –
CCOCC(NC)C(=O)NC1C(=O)NC(CC(N)=O)C(=O)NC2C(=O)NC3C(=O)NC(C(=O)NC(C(=O)O)c4cc(O)cc(O)c4-c4cc3ccc4O)C(O)c3ccc(c(Cl)c3)Oc3cc2cc(c3OC2OC(CO)C(O)C(O)C2OC2CC(C)(NCc3ccc(-c4ccc(Cl)cc4)cc3)C(O)C(C)O2)Oc2ccc(cc2Cl)C1O (stereo not shown) [Compound 527] | – | 0.25 | 0.39 | 0.39 | – | – | 25 | – | – | – | – | –
